Literature values in patent publication US20220290237A1, “METHOD FOR PREDICTING THE RESPONSE OF ANTIPSYCHOTIC DRUGS” (INSERM (INSTITUT NATIONAL DE LA SANTÉ ET DE LA RECHERCHE …, priority 2019, published 2022).

Details: first episode psychosis patients; cited from earlier work

## Cc1cc2c(s1)Nc1ccccc1N=C2N1CCN(C)CC1 [olanzapine, 2-méthyl-4-(4-méthyl-1-pipérazinyl)-10H-thiéno[2,3-b][1,5]benzodiazepine]
  outcome after change from amisulpride to olanzapine: did not improve outcome for most of the patient
